According to US10409869B2, “(R)- and (S)-1-(3-(3-N,N-dimethylaminocarbonyl)phenoxyl-4-nitrophenyl)-1-ethyl-N,N'-bis (ethylene)phosphoramidate, compositions and methods for their use and preparation” (OBI Pharma, Inc., priority 2015, dated 2019):

Assay: Hematology in monkeys, 2 mg/kg 30-min IV infusion
Type: in vivo, Cynomolgus monkeys
Method: TH 3423 and TH 3424 were tested in […] naïve monkeys (1 male and one female for each compound at 2 mg/kg) with 30-min intravenous infusion, TK sampling: on Day 1 and Day 15: 0.25, 0.5, 0.75, 1 and 2 hr post infusion initiation. Serum chemistry and hematology: pre-dose (Day 1), day 5, day 8 (pre-dose), day 15 (pre-dose), day 22 and day 28. Clinical observation: Daily during the study, total 35 days. Food consumption: Daily during the study, total 35 days. Bodyweight measurement: Twice weekly for five weeks.

## C[C@@H](OP(=O)(N1CC1)N1CC1)c1ccc([N+](=O)[O-])c(Oc2cccc(C(=O)N(C)C)c2)c1 (single isomer, unassigned) [TH3423]
female, Day 1 (pre-dose)
  % BASO: 0.0%
  % EOS: 2.3%
  % MONO: 4.8%
  % NEUT: 47.9%
  HCT: 35%
  HGB: 112 g/L
  LYM: 45%
  MCH: 24 pg
  MCHC: 320 g/L
  MCV: 74.9 fL
  MPV: 10.6 fL
  PCT: 0.338%
  PDW: 14.8
  PLT: 3.18e+11 L⁻¹
  RBC: 4.67e+12 L⁻¹
  RDW-CV: 11.8%
  RDW-SD: 37.2 fL
  WBC: 6.7e+09 L⁻¹
  abs_basos: 0 L⁻¹
  abs_eos: 1.5e+08 L⁻¹
  abs_lymphs: 3.02e+09 L⁻¹
  abs_monos: 3.2e+08 L⁻¹
  abs_neuts: 3.21e+09 L⁻¹
female, Day 8 (pre-dose)
  % BASO: 0.20%
  % EOS: 2.30%
  % MONO: 0.00%
  % NEUT: 61.90%
  HCT: 39.80%
  HGB: 128.00 g/L
  LYM: 35.60%
  MCH: 24.60 pg
  MCHC: 322.00 g/L
  MCV: 76.30 fL
  MPV: 9.60 fL
  PCT: 0.67%
  PDW: 15.40
  PLT: 6.99e+11 L⁻¹
  RBC: 5.21e+12 L⁻¹
  RDW-CV: 12.30%
  RDW-SD: 39.50 fL
  WBC: 1.035e+10 L⁻¹
  abs_basos: 2e+07 L⁻¹
  abs_eos: 2.5e+08 L⁻¹
  abs_lymphs: 3.68e+09 L⁻¹
  abs_monos: 0 L⁻¹
  abs_neuts: 6.4e+09 L⁻¹
female, Day 15 (pre-dose)
  % BASO: 0.10%
  % EOS: 2.70%
  % MONO: 6.30%
  % NEUT: 63.0%
  HCT: 33.9%
  HGB: 115 g/L
  LYM: 27.90%
  MCH: 24.0 pg
  MCHC: 339 g/L
  MCV: 70.6 fL
  MPV: 8.70 fL
  PCT: 0.46%
  PDW: 15.10
  PLT: 5.33e+11 L⁻¹
  RBC: 4.8e+12 L⁻¹
  RDW-CV: 10.9%
  RDW-SD: 32.3 fL
  WBC: 9.56e+09 L⁻¹
  abs_basos: 1e+07 L⁻¹
  abs_eos: 2.6e+08 L⁻¹
  abs_lymphs: 2.67e+09 L⁻¹
  abs_monos: 6e+08 L⁻¹
  abs_neuts: 6.02e+09 L⁻¹
male, Day 1 (pre-dose)
  % BASO: 0.0%
  % EOS: 2.4%
  % MONO: 5.5%
  % NEUT: 55.4%
  HCT: 40.8%
  HGB: 132 g/L
  LYM: 36.7%
  MCH: 25.4 pg
  MCHC: 324 g/L
  MCV: 78.3 fL
  MPV: 10.2 fL
  PCT: 0.365%
  PDW: 15.1
  PLT: 3.58e+11 L⁻¹
  RBC: 5.2e+12 L⁻¹
  RDW-CV: 11.6%
  RDW-SD: 38.2 fL
  WBC: 5.33e+09 L⁻¹
  abs_basos: 0 L⁻¹
  abs_eos: 1.3e+08 L⁻¹
  abs_lymphs: 1.95e+09 L⁻¹
  abs_monos: 2.9e+08 L⁻¹
  abs_neuts: 2.96e+09 L⁻¹
male, Day 8 (pre-dose)
  % BASO: 0.7%
  % EOS: 3.0%
  % MONO: 0.0%
  % NEUT: 80.9%
  HCT: 44.70%
  HGB: 146.00 g/L
  LYM: 15.4%
  MCH: 24.90 pg
  MCHC: 327.00 g/L
  MCV: 76.20 fL
  MPV: 10.60 fL
  PCT: 0.52%
  PDW: 15.70
  PLT: 4.9e+11 L⁻¹
  RBC: 5.86e+12 L⁻¹
  RDW-CV: 11.90%
  RDW-SD: 38.00 fL
  WBC: 1.166e+10 L⁻¹
  abs_basos: 8e+07 L⁻¹
  abs_eos: 3.5e+08 L⁻¹
  abs_lymphs: 1.79e+09 L⁻¹
  abs_monos: 0 L⁻¹
  abs_neuts: 9.44e+09 L⁻¹
